Assay results published in ChEMBL document CHEMBL5104202, “Structure-Uptake Relationship Studies of Oxazolidinones in Gram-Negative ESKAPE Pathogens” (J Med Chem, 2022).

What was measured:
Type in all cases: functional, organism-based
Escherichia coli [1] = test: Antibacterial activity against efflux pump lacking/recombinant OM pore producing Escherichia coli assessed as inhibition of bacterial growth
Acinetobacter baumannii [2] = test: Antibacterial activity against efflux pump lacking Acinetobacter baumannii assessed as inhibition of bacterial growth
Acinetobacter baumannii [3] = test: Antibacterial activity against recombinant OM pore producing Acinetobacter baumannii assessed as inhibition of bacterial growth
Pseudomonas aeruginosa [4] = test: Antibacterial activity against wild type Pseudomonas aeruginosa assessed as inhibition of bacterial growth
Pseudomonas aeruginosa [5] = test: Antibacterial activity against efflux pump lacking Pseudomonas aeruginosa assessed as inhibition of bacterial growth
Escherichia coli [6] = test: Antibacterial activity against wild type Escherichia coli assessed as inhibition of bacterial growth
Acinetobacter baumannii [7] = test: Antibacterial activity against efflux pump lacking/recombinant OM pore producing Acinetobacter baumannii assessed as inhibition of bacterial growth
Pseudomonas aeruginosa [8] = test: Antibacterial activity against efflux pump lacking/recombinant OM pore producing Pseudomonas aeruginosa assessed as inhibition of bacterial growth
Acinetobacter baumannii [9] = test: Antibacterial activity against wild type Acinetobacter baumannii assessed as inhibition of bacterial growth
Pseudomonas aeruginosa [10] = test: Antibacterial activity against recombinant OM pore producing Pseudomonas aeruginosa assessed as inhibition of bacterial growth
Escherichia coli [11] = test: Antibacterial activity against recombinant OM pore producing Escherichia coli assessed as inhibition of bacterial growth
Escherichia coli [12] = test: Antibacterial activity against efflux pump lacking Escherichia coli assessed as inhibition of bacterial growth

With `C[n+]1cccc(-c2ccc(N3C[C@H](CO)OC3=O)cc2F)c1` the IC50 (Escherichia coli [1]) was 88.8 µM, the IC50 (Acinetobacter baumannii [2]) was greater than 100 µM and the IC50 (Acinetobacter baumannii [3]) was greater than 100 µM. The IC50 (Pseudomonas aeruginosa [4]) was greater than 100 µM, the IC50 (Pseudomonas aeruginosa [5]) was greater than 100 µM and the IC50 (Escherichia coli [6]) was greater than 100 µM. For the same molecule, the IC50 (Acinetobacter baumannii [7]) was greater than 100 µM, the IC50 (Pseudomonas aeruginosa [8]) was greater than 100 µM and the IC50 (Acinetobacter baumannii [9]) was greater than 100 µM. The IC50 (Pseudomonas aeruginosa [10]) was greater than 100 µM, the IC50 (Escherichia coli [11]) was greater than 100 µM and the IC50 (Escherichia coli [12]) was 70.6 µM.
For `C[n+]1ccc2cc(-c3ccc(N4C[C@H](CO)OC4=O)cc3F)ccc2c1`, the IC50 (Escherichia coli [1]) was 11.4 µM, the IC50 (Acinetobacter baumannii [2]) was 29.7 µM and the IC50 (Acinetobacter baumannii [3]) was 20.1 µM. The IC50 (Pseudomonas aeruginosa [4]) was greater than 100 µM, the IC50 (Pseudomonas aeruginosa [5]) was greater than 100 µM and the IC50 (Escherichia coli [6]) was 63.6 µM. For the same molecule, the IC50 (Acinetobacter baumannii [7]) was 27.9 µM, the IC50 (Pseudomonas aeruginosa [8]) was greater than 100 µM and the IC50 (Acinetobacter baumannii [9]) was greater than 100 µM. The IC50 (Pseudomonas aeruginosa [10]) was greater than 100 µM, the IC50 (Escherichia coli [11]) was 30 µM and the IC50 (Escherichia coli [12]) was 4 µM.
For `O=C1O[C@@H](CO)CN1c1ccc(-c2ccccc2)c(F)c1`, the IC50 (Escherichia coli [1]) was 0.3 µM, the IC50 (Acinetobacter baumannii [2]) was 2.3 µM and the IC50 (Acinetobacter baumannii [3]) was 5.5 µM. It also gave an IC50 (Pseudomonas aeruginosa [4]) greater than 100 µM, an IC50 (Pseudomonas aeruginosa [5]) of 2.3 µM and an IC50 (Escherichia coli [6]) of 18.4 µM. For the same molecule, the IC50 (Acinetobacter baumannii [7]) was 1.9 µM, the IC50 (Pseudomonas aeruginosa [8]) was 1.4 µM and the IC50 (Acinetobacter baumannii [9]) was 18.4 µM. The IC50 (Pseudomonas aeruginosa [10]) was 13.1 µM, the IC50 (Escherichia coli [11]) was 2 µM and the IC50 (Escherichia coli [12]) was 0.4 µM.
Work on `CC(C)(C)OC(=O)N[C@@H](Cc1cccc(-c2ccc(N3C[C@H](CO)OC3=O)cc2F)c1)C(=O)O` yielded an IC50 (Escherichia coli [1]) greater than 100 µM, an IC50 (Acinetobacter baumannii [2]) greater than 100 µM and an IC50 (Acinetobacter baumannii [3]) greater than 100 µM. The IC50 (Pseudomonas aeruginosa [4]) was greater than 100 µM, the IC50 (Pseudomonas aeruginosa [5]) was greater than 100 µM and the IC50 (Escherichia coli [6]) was greater than 100 µM. It also gave an IC50 (Acinetobacter baumannii [7]) greater than 100 µM, an IC50 (Pseudomonas aeruginosa [8]) greater than 100 µM and an IC50 (Acinetobacter baumannii [9]) greater than 100 µM. For the same molecule, the IC50 (Pseudomonas aeruginosa [10]) was greater than 100 µM, the IC50 (Escherichia coli [11]) was greater than 100 µM and the IC50 (Escherichia coli [12]) was greater than 100 µM.
With `O=C1O[C@@H](CO)CN1c1ccc(-c2ccc3cnccc3c2)c(F)c1` the IC50 (Escherichia coli [1]) was greater than 100 µM, the IC50 (Acinetobacter baumannii [2]) was 5.6 µM and the IC50 (Acinetobacter baumannii [3]) was greater than 100 µM. For the same molecule, the IC50 (Pseudomonas aeruginosa [4]) was greater than 100 µM, the IC50 (Pseudomonas aeruginosa [5]) was 67.7 µM and the IC50 (Escherichia coli [6]) was greater than 100 µM. It also gave an IC50 (Acinetobacter baumannii [7]) of 5.6 µM, an IC50 (Pseudomonas aeruginosa [8]) of 37.9 µM and an IC50 (Acinetobacter baumannii [9]) greater than 100 µM. The IC50 (Pseudomonas aeruginosa [10]) was greater than 100 µM, the IC50 (Escherichia coli [11]) was greater than 100 µM and the IC50 (Escherichia coli [12]) was greater than 100 µM.
`O=C(O)CCCC#Cc1ccc(N2C[C@H](CO)OC2=O)cc1F` was tested, and the IC50 (Escherichia coli [1]) was greater than 100 µM, the IC50 (Acinetobacter baumannii [2]) was greater than 100 µM and the IC50 (Acinetobacter baumannii [3]) was greater than 100 µM. For the same molecule, the IC50 (Pseudomonas aeruginosa [4]) was greater than 100 µM, the IC50 (Pseudomonas aeruginosa [5]) was greater than 100 µM and the IC50 (Escherichia coli [6]) was greater than 100 µM. For the same molecule, the IC50 (Acinetobacter baumannii [7]) was greater than 100 µM, the IC50 (Pseudomonas aeruginosa [8]) was greater than 100 µM and the IC50 (Acinetobacter baumannii [9]) was greater than 100 µM. For the same molecule, the IC50 (Pseudomonas aeruginosa [10]) was greater than 100 µM, the IC50 (Escherichia coli [11]) was greater than 100 µM and the IC50 (Escherichia coli [12]) was greater than 100 µM.
For `O=C1NCCN1CC#Cc1ccc(N2C[C@H](CO)OC2=O)cc1F`, the IC50 (Escherichia coli [1]) was 39 µM, the IC50 (Acinetobacter baumannii [2]) was greater than 100 µM and the IC50 (Acinetobacter baumannii [3]) was greater than 100 µM. For the same molecule, the IC50 (Pseudomonas aeruginosa [4]) was greater than 100 µM, the IC50 (Pseudomonas aeruginosa [5]) was greater than 100 µM and the IC50 (Escherichia coli [6]) was greater than 100 µM. The IC50 (Acinetobacter baumannii [7]) was greater than 100 µM, the IC50 (Pseudomonas aeruginosa [8]) was greater than 100 µM and the IC50 (Acinetobacter baumannii [9]) was greater than 100 µM. It also gave an IC50 (Pseudomonas aeruginosa [10]) greater than 100 µM, an IC50 (Escherichia coli [11]) greater than 100 µM and an IC50 (Escherichia coli [12]) of 64.3 µM.
Work on `C[n+]1ccccc1-c1ccc(-c2ccc(N3C[C@H](CO)OC3=O)cc2F)cc1` yielded an IC50 (Escherichia coli [1]) of 4.4 µM, an IC50 (Acinetobacter baumannii [2]) of 20.4 µM and an IC50 (Acinetobacter baumannii [3]) of 13.3 µM. It also gave an IC50 (Pseudomonas aeruginosa [4]) greater than 100 µM, an IC50 (Pseudomonas aeruginosa [5]) of 8.4 µM and an IC50 (Escherichia coli [6]) of 72.6 µM. For the same molecule, the IC50 (Acinetobacter baumannii [7]) was 10.2 µM, the IC50 (Pseudomonas aeruginosa [8]) was 1.2 µM and the IC50 (Acinetobacter baumannii [9]) was greater than 100 µM. It also gave an IC50 (Pseudomonas aeruginosa [10]) of 15.9 µM, an IC50 (Escherichia coli [11]) of 13.2 µM and an IC50 (Escherichia coli [12]) of 3.1 µM.
`C[n+]1ccccc1-c1ccc(N2C[C@H](CO)OC2=O)cc1F` was tested, and the IC50 (Escherichia coli [1]) was 60.4 µM, the IC50 (Acinetobacter baumannii [2]) was greater than 100 µM and the IC50 (Acinetobacter baumannii [3]) was greater than 100 µM. It also gave an IC50 (Pseudomonas aeruginosa [4]) greater than 100 µM, an IC50 (Pseudomonas aeruginosa [5]) greater than 100 µM and an IC50 (Escherichia coli [6]) greater than 100 µM. The IC50 (Acinetobacter baumannii [7]) was 33.3 µM, the IC50 (Pseudomonas aeruginosa [8]) was 40.4 µM and the IC50 (Acinetobacter baumannii [9]) was greater than 100 µM. For the same molecule, the IC50 (Pseudomonas aeruginosa [10]) was greater than 100 µM, the IC50 (Escherichia coli [11]) was greater than 100 µM and the IC50 (Escherichia coli [12]) was 72.3 µM.
With `CC(C)(C)Oc1cc(-c2ccc(N3C[C@H](CO)OC3=O)cc2F)cnc1C#N` the IC50 (Escherichia coli [1]) was greater than 100 µM, the IC50 (Acinetobacter baumannii [2]) was greater than 100 µM and the IC50 (Acinetobacter baumannii [3]) was greater than 100 µM. It also gave an IC50 (Pseudomonas aeruginosa [4]) greater than 100 µM, an IC50 (Pseudomonas aeruginosa [5]) greater than 100 µM and an IC50 (Escherichia coli [6]) greater than 100 µM. It also gave an IC50 (Acinetobacter baumannii [7]) greater than 100 µM, an IC50 (Pseudomonas aeruginosa [8]) greater than 100 µM and an IC50 (Acinetobacter baumannii [9]) greater than 100 µM. For the same molecule, the IC50 (Pseudomonas aeruginosa [10]) was greater than 100 µM, the IC50 (Escherichia coli [11]) was greater than 100 µM and the IC50 (Escherichia coli [12]) was greater than 100 µM.
